Reference: patent publication US9365541B2, “Compounds for use in the treatment of parasitic diseases” (IRBM—SCIENCE PARK S.P.A., priority 2012, dated 2016)

Tests used:
[1] = tested on: Plasmodium falciparum 3D7; assay: P. falciparum growth inhibition assay (Pf-LDH); assay type: cell-based; conditions: Plasmodium falciparum, Erythrocyte; P. falciparum 3D7 infected erythrocytes, 72 h incubation, PfLDH readout
Protocol: Basic culture of Plasmodium falciparum 3D7 parasites (Malaria Research and Reference Reagent Resource Center (MR4), MR4 Number: MRA-102).
Starting with a culture with a parasitemia of about 10% (and 5% hematocrit), 0.5 ml of the culture is placed in a fresh 100 mm petri dish with 0.95 ml of fresh erythrocytes (50% hematocrit) and 8.55 ml of culture medium, giving a new starting parasitemia of 0.5%. The petri dish is then incubated at 37° C. in a humidified gas-tight plastic box flushed with a gas mixture consisting of 93% N2, 4% CO2, and 3% O2. The culture medium is changed daily. The supernatant is removed by gently tipping the dish without disturbing the settled cells and aspirating the medium with a Pasteur pipette connected to a vacuum pump. A small amount of the concentrated cells is taken to prepare a blood smear for determination of the parasitemia. Normally, the cultures are split twice a week. If the parasites are growing very slowly then fresh erythrocytes are added to the culture no later than after 7 days. The cultures are then split 1:2 if the parasitemia is lower than 0.5%. To avoid the necessity of daily medium change on weekends, a culture with a 2.5% hematocrit and 0.1-0.2% parasitemia is set up and can be left for 3 days without medium change.
Standard medium consists of RPMI 1640, supplemented with 25 mM HEPES, 24 mM NaHCO3, 0.36 mM hypoxanthine, 100 μg/ml Neomycin, 5 g/1 Albumax® II, and washed human red blood cells (rbcs) A+.
P. falciparum Growth Inhibition Assay (Pf-LDH)
Compounds of the invention were assessed for in vitro antimalarial activity against a cloroquine sensitive (3D7) strain of the malaria parasite Plasmodium falciparum, using a lactate dehydrogenase (PfLDH) assay.
EC50 Determination by Pf-LDH Assay
384 plates (where compounds to be tested are dispensed) with 25 μl of parasite inoculum (parasitemia: 0.25%, hematocrit: 2%) are incubated at 37° C. in an atmosphere of 4% CO2, 3% O2, 93% N2. After 72 h of incubation, plates are frozen at −70° C. overnight and thawed at room temperature for at least 4 h. To evaluate PfLDH activity, 70 μl of freshly made reaction mix (143 mM sodium L-lactate, 143 μM 3-acetyl pyridine adenine dinucleotide (APAD), 178.75 μM Nitro Blue tetrazolium chloride (NBT), 286 μg/ml diaphorase (2.83 U/ml), 0.7% Tween 20, 100 mM Tris-HCl pH 8.0) is dispensed using a Multidrop Combi dispenser. Plates are shaken to ensure mixing and absorbance at 650 nm is monitored in a plate reader after 10 min of incubation at room temperature.
Negative controls (0% Effect) are produced by addition of DMSO to the proper wells.
Positive controls (100% Effect) are produced by addition of 150 nM Artemisinin (Sigma-Aldrich, 361593)
After result normalization using positive and negative controls, compound potency is determined by fitting the following equation: % inh=Ymin+(Ymax−Ymin)/(1+(X/EC50)^slope)) Where: • Ymin=minimum percentage effect • Ymax=maximum percentage effect • EC50=the concentration of the compound at which 50% effect is reached • Slope=the slope of the curve calculated at the EC50 Histone Hyperacetylation and Immunodetection of Altered Histone Modifications Assay

human HDAC1 = biological target: T1, human HDAC1 (Homo sapiens, UniProt Q13547); assay: Homo sapiens HDAC1 inhibition assay (Fluor-de-Lys, enzymatic); assay type: biochemical; conditions: human HDAC enzymatic assay; read-out: hHDAC IC50
T1 construct: made in house; host or cells: HeLa (ATCC CCL-2), mammalian cells
Protocol: Biology Homo sapiens HDAC1 Inhibition Assay Overview:
The aim of the assay is to evaluate the inhibition of the deacetylase activity of human HDAC1. To such goal an acetylated substrate is added to the enzyme mix; the resulting enzymatic product is converted to a fluorescent molecule by the addition the enzyme trypsine (developer solution). Fluorescence intensity is inversely proportional to the rate of inhibition of the enzyme (as indicated in the material section below).
Reagents of the HDAC Fluorescent Activity Assay are purchased from Enzo Life Sciences (http://www.enzolifesciences.com/BML-AK500/fluor-de-lys-hdac-fluorometric-activity-assay-kit/) and feature the Fluor-de-Lys™ Substrate/Developer System.
c) Trichostatin A (TSA) Stock
TSA (Sigma-Aldrich, T8552) is provided as a 10 mM stock solution in 100% dimethylsulfoxide (DMSO).
Diluted Substrate Solution
The final concentration in the assay is 20 μM.
Diluted Developer Solution
2 μM [final] TSA to this solution increases its ability to stop the reaction.
The HDAC1 enzyme is diluted in assay buffer prior to each use from a fresh aliquot of enzyme.
The final concentration in the assay is 1-2 nM.
Test compounds should be prepared in 100% DMSO and transferred to the assay by a nano volume dispenser to reach the appropriate concentration and the appropriate DMSO concentration (0.25%) in the reaction.

T1 sequence (Q13547 whole entry): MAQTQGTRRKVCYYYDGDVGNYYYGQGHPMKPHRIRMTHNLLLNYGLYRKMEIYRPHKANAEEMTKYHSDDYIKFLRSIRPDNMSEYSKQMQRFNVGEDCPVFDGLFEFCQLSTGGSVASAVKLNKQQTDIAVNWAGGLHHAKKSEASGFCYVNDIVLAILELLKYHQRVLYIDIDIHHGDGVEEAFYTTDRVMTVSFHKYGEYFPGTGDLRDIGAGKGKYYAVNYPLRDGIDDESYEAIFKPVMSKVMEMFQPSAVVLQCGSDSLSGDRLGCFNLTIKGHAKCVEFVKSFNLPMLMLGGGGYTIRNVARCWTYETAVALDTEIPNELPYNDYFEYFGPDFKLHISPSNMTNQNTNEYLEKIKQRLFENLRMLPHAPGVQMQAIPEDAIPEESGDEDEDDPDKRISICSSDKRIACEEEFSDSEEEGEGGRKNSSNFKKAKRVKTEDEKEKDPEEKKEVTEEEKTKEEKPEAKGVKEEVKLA

Compound	EC50 [1] [µM]	IC50 (human HDAC1) [µM]
CNC(=O)CCCCC[C@H](NC(=O)c1ccc(N2CC(=O)NC2=O)cc1)c1ncc(-c2cc3ccccc3nc2OC)[nH]1 [Entry 183, (S)-4-(2,4-dioxoimidazolidin-1-yl)-N-(1-(5-(2-methoxyquinolin-3-yl)-1H-imidazol-2-yl)-7-(methylamino)-7-oxoheptyl)benzamide]	1 to 5	1 to 5
CNC(=O)CCCCC[C@H](NC(=O)c1cncs1)c1ncc(-c2cccc(-c3cc[nH]n3)c2)[nH]1 [Entry 188, (S)-N-(1-(5-(3-(1H-pyrazol-3-yl)phenyl)-1H-imidazol-2-yl)-7-(methylamino)-7-oxoheptyl)thiazole-5-carboxamide]	1 to 5	> 5
CNC(=O)CCCCC[C@H](NC(=O)[C@@H]1CCCN1C)c1ncc(-c2cc3ccccc3nc2OC)[nH]1 [Entry 104, (S)-N-((S)-1-(5-(2-methoxyquinolin-3-yl)-1H-imidazol-2-yl)-7-(methylamino)-7-oxoheptyl)-1-methylpyrrolidine-2-carboxamide]	> 5	> 5
CNC(=O)CCCCC[C@H](NC(=O)CCn1ccnc1)c1ncc(-c2cc3ccccc3nc2OC)[nH]1 [Entry 27, (S)-7-(3-(1H-imidazol-1-yl)propanamido)-7-(5-(2-methoxyquinolin-3-yl)-1H-imidazol-2-yl)-N-methylheptanamide]	1 to 5	1 to 5
CNC(=O)CCCCC[C@H](NC(=O)CN1CCOCC1)c1ncc(-c2ccc3ccccc3c2)[nH]1 [Entry 23, (S)-N-methyl-7-(2-morpholinoacetamido)-7-(5-(naphthalen-2-yl)-1H-imidazol-2-yl)heptanamide]	1 to 5	1 to 5
CNC(=O)CCCCC[C@H](NC(=O)c1cccc2nccnc12)c1ncc(-c2ccc3ccccc3c2)[nH]1 [Entry 88, (S)-N-(7-(methylamino)-1-(5-(naphthalen-2-yl)-1H-imidazol-2-yl)-7-oxo-heptyl)quinoxaline-5-carboxamide]	> 5	> 5
CNC(=O)CCCCC[C@H](NC(=O)Cc1ccccn1)c1ncc(-c2cc3ccccc3nc2OC)[nH]1 [Entry 106]	> 5	1 to 5
CNC(=O)CCCCC[C@H](NC(=O)c1cnn(C)c1)c1ncc(-c2ccc(-c3ccn(C)n3)cc2)[nH]1 [Entry 212, (S)-1-methyl-N-(1-(5-(4-(1-methyl-1H-pyrazol-3-yl)phenyl)-1H-imidazol-2-yl)-7-(methylamino)-7-oxoheptyl)-1H-pyrazole-4-carboxamide]	< 1	1 to 5
CNC(=O)CCCCC[C@H](NC(=O)CN1CCCCC1)c1ncc(-c2ccc3ccccc3c2)[nH]1 [Entry 1]	1 to 5	1 to 5
CNC(=O)CCCCC[C@H](NC(=O)CCN1CCCCC1)c1ncc(-c2ccc(C(F)(F)F)cc2)[nH]1 [Entry 101, (S)-N-methyl-7-(3-(piperidin-1-yl)propanamido)-7-(5-(4-(trifluoro-methyl)phenyl)-1H-imidazol-2-yl)heptanamide]	1 to 5	> 5
CNC(=O)CCCCC[C@H](NC(=O)Cn1ccc(C)n1)c1ncc(-c2ccc3ccncc3c2)[nH]1 [Entry 119]	1 to 5	1 to 5
CNC(=O)CCCCC[C@H](NC(=O)C1CN(C)C1)c1ncc(-c2ccc3ccccc3c2)[nH]1 [Entry 26]	1 to 5	< 1
CNC(=O)CCCCC[C@H](NC(=O)C(C)n1cccn1)c1ncc(-c2ccc3ccccc3c2)[nH]1 (stereo partly drawn) [Entry 85, (7S)-7-(2-(1H-pyrazol-1-yl)propanamido)-N-methyl-7-(5-(naphthalen-2-yl)-1H-imidazol-2-yl)heptanamide]	1 to 5	1 to 5
CNC(=O)CCCCC[C@H](NC(=O)c1cncs1)c1ncc(-c2cnc3ccccc3c2)[nH]1 [Entry 36, (S)-N-(7-(methylamino)-7-oxo-1-(5-(quinolin-3-yl)-1H-imidazol-2-yl)heptyl)thiazole-5-carboxamide]	< 1	1 to 5
CCc1nc2ccccc2n1CCC(=O)N[C@@H](CCCCCC(=O)NC)c1nnc(-c2ccc3ccccc3c2)o1 [Entry 94, (S)-7-(3-(2-ethyl-1H-benzo[d]imidazol-1-yl)propanamido)-N-methyl-7-(5-(naphthalen-2-yl)-1,3,4-oxadiazol-2-yl)heptanamide]	1 to 5	1 to 5
CNC(=O)CCCCC[C@H](NC(=O)Cc1cnccn1)c1ncc(-c2cc3ccccc3nc2OC)[nH]1 [Entry 76]	1 to 5	1 to 5
CNC(=O)CCCCC[C@H](NC(=O)C1CN(C)C1)c1ncc(-c2cc3ccccc3[nH]c2=O)[nH]1 [Entry 18, (S)-1-methyl-N-(7-(methylamino)-7-oxo-1-(5-(2-oxo-1,2-dihydroquinolin-3-yl)-1H-imidazol-2-yl)heptyl)azetidine-3-carboxamide]	> 5	1 to 5
CNC(=O)CCCCC[C@H](NC(=O)CCc1c(C)nc2ncnn2c1C)c1ncc(-c2cc3ccccc3nc2OC)[nH]1 [Entry 186, (S)-7-(3-(5,7-dimethyl-[1,2,4]triazolo[1,5-a]pyrimidin-6-yl)propanamido)-7-(5-(2-methoxyquinolin-3-yl)-1H-imidazol-2-yl)-N-methylheptanamide]	< 1	< 1
CNC(=O)CCCCC[C@H](NC(=O)c1cncs1)c1ncc(-c2ccc3cc[nH]c3c2)[nH]1 [Entry 173, (S)-N-(1-(5-(1H-indol-6-yl)-1H-imidazol-2-yl)-7-(methylamino)-7-oxoheptyl)thiazole-5-carboxamide]	1 to 5	1 to 5
Cn1ccc(-c2ccc(-c3cnc([C@H](CCCCCC(N)=O)NC(=O)c4cncs4)[nH]3)cc2)n1 [Entry 218, (S)-N-(7-amino-1-(5-(4-(1-methyl-1H-pyrazol-3-yl)phenyl)-1H-imidazol-2-yl)-7-oxoheptyl)thiazole-5-carboxamide]	< 1	< 1
CNC(=O)CCCCC[C@H](NC(=O)Cn1cncn1)c1ncc(-c2ccc(-n3cccn3)cc2)[nH]1 [Entry 11, (S)-7-(2-(1H-1,2,4-triazol-1-yl)acetamido)-7-(5-(4-(1H-pyrazol-1-yl)phenyl)-1H-imidazol-2-yl)-N-methylheptanamide]	> 5	> 5
CNC(=O)CCCCC[C@H](NC(=O)CN1CCN(C)CC1)c1ncc(-c2ccc3ccccc3c2)[nH]1 [Entry 165, (S)-N-methyl-7-(2-(4-methylpiperazin-1-yl)acetamido)-7-(5-(naphthalen-2-yl)-1H-imidazol-2-yl)heptanamide]	> 5	1 to 5
CNC(=O)CCCCC[C@H](NC(=O)C1CCC1(F)F)c1ncc(-c2ccc(-c3ccn(C)n3)cc2)[nH]1 (stereo partly drawn) [Entry 91, 2,2-difluoro-N-((S)-1-(5-(4-(1-methyl-1H-pyrazol-3-yl)phenyl)-1H-imidazol-2-yl)-7-(methylamino)-7-oxo-heptyl)cyclobutane-carboxamide]	> 5	> 5
